Source: US11661581B2, “Use of CDK inhibitors to enhance growth and self-renewal of progenitor cells” (University of Massachusetts, priority 2017, dated 2023)
Entries after “also recorded” stand apart in the source; their conditions may differ.

Legend:
[1] = system: mouse bone marrow erythroid progenitors; test: Mouse adult bone marrow erythroid self-renewal culture, amplification of cell number; type: cell-based; conditions: for growth of mouse bone marrow erythroid progenitors (in words): drug at five times its respective IC50, two independent experiments
Protocol: (§1) Adult bone marrow mononuclear cells (StemCell Technologies) (A), mouse fetal liver (B) and mouse adult bone marrow (C-D), were cultured in the presence of Dex, Epo, SCF and IGF-1. Dex slows down and delays the transition from self-renewal to differentiation of early CFU-e progenitors, leading to their numerical amplification.
The doses chosen for all these inhibitors were approximately 5 times the IC50 for each drug.

[2] = system: mouse bone marrow CFU-e progenitors; test: CFU-e colony formation in semi-solid medium from mouse bone marrow cultures; type: cell-based; conditions: for increase in absolute CFU-e numbers relative to control cultures: day 5 of culture
Protocol: (17B) Mouse bone marrow erythroid progenitors, treated as described in A, but plated on day 5 of the culture in semi-solid medium, CFU-e colonies scored 72 hours later.

[3] = system: p57KIP2-deficient fetal liver CFUe; test: Dex-dependent CFUe self-renewal (expansion) culture of p57KIP2-deficient fetal liver cells; type: cell-based, mouse; conditions: self-renewal medium Epo+Dex; roscovitine 0.5 μM
Protocol: (§2) To isolate Ter119-negative cells, fresh fetal liver cells were stained with biotin-conjugated anti-Ter119 (BD Biosciences 553672) at 1:100, followed by EasySep magnetic separation (StemCell Technologies). Cells were grown in Stem-Pro-34 serum free medium supplemented with nutrient supplement (Invitrogen), 1 μM dexamethasone (Sigma), 100 ng/ml SCF (PeproTech), 40 ng/ml IGF1 (PeproTech), 2 U/ml Epo, 100 U/ml penicillin/streptomycin (Invitrogen) and 2 mM L-glutamine (Invitrogen). Cells were maintained at 2×10^6 cells/ml, and supplemented daily with fresh medium and growth factors. To test the effect of roscovitine on p57^KIP2−/− fetal liver cells in expansion culture, cells were grown and maintained as described above with the additional supplemented daily of 0.5 μM roscovitine (EMD Millipore 557360). To switch to differentiation medium, after being maintained in expansion medium for 4 to 5 days, Ter119-negative cells were isolated again using EasySep magnetic beads (StemCell Technologies). Cells were then transferred to IMDM (L-glutamine, 25 mM HEPES) (Gibco), 20% fetal calf serum (Gibco, HyClone), 100 U/ml penicillin/streptomycin (Invitrogen), […] β-mercapthoethanol (Sigma) and 2 U/ml Epo.
We also investigated whether CDK inhibition could underlie the essential role that p57^KIP2 plays in maintaining the viability of self-renewing CFUe.

wild-type CFU-e = test: Dex-dependent CFUe self-renewal (expansion) culture of wild-type fetal liver cells; type: cell-based, mouse
Protocol: as §2
In three independent experiments, wild-type cells growing in roscovitine were amplified an average of 1.92±0.43 fold more than wild-type cells without treatment.

[4] = system: human adult bone marrow mononuclear cells (erythroid progenitors); test: Human bone marrow erythroid self-renewal culture, amplification of cell number; type: cell-based; conditions: peak on day 16; pooled from two independent experiments; roscovitine concentration not stated (1, 5 or 10 μM)
Protocol: as §1
(§3) We cultured hematopoietic tissue cells from either mouse adult bone marrow, mouse fetal liver (mid-gestation, embryonic day 13.5), or human adult bone marrow (StemCell Technologies, Vancouver, Canada), under conditions that facilitate self-renewal of colony-forming-unit-erythroid (CFU-e), in which the following are added to the culture medium: erythropoietin (Epo, 2 Units/ml), Stem Cell Factor (SCF, 100 ng/ml), Insulin-like Growth Factor 1 (IGF1, 40 ng/ml) and dexamethasone (Dex, 1 μM). Control cultures contained no other specialized additives; parallel cultures had, in addition, the CDK inhibitor roscovitine (1, 5 or 10 μM) (Pippin et al., J Clin Invest 100, 2512-2520 (1997); Meijer et al., European Journal of Biochemistry 243, 527-536 (1997)). […]

[5] = system: mouse bone marrow self-renewing cultures; test: Flow cytometry and BrdU cell cycle analysis of mouse bone marrow self-renewing cultures; type: cell-based
Protocol: (18A) Flow cytometric analysis of mouse bone marrow self-renewing cultures, on day 6 of culture. […] The overall viability of cells in roscovitine-treated cultures was increased (not shown). Bottom panels: corresponding cell cycle analysis of cells in each culture. Cells were pulsed with BrdU at 33 μM for 25 min before analysis.
We examined cells in the self-renewing cultures using flow-cytometry. Cell surface markers CD71 and Ter119 denote the differentiation stage of erythroid progenitors and precursors in mouse hematopoietic tissue^81,41. […] By contrast, control cultures contained a substantial fraction (35%) of Ter119+ cells.

[6] = system: human bone marrow self-renewing cultures; test: Flow cytometry of human bone marrow self-renewing cultures; type: cell-based; conditions: day 10 of culture
Description: (18B) Flow cytometric analysis of human bone marrow self-renewing cultures, on day 10 of culture.

[7] = system: mouse fetal liver erythroid cells; test: Mouse fetal liver erythroid self-renewal culture (Example 2), amplification of cell number; type: cell-based; conditions: Dex, Epo, SCF, IGF-1
Protocol: as §1, §3

p57KIP2-/- CFUe = test: CFUe colony potential of p57KIP2-/- cells from Dex self-renewal cultures; conditions: day 11 of culture, 10^5 cells per dish, colonies scored 72 hours after plating
Protocol: (12B) Analysis of CFUe potential in Dex-dependent self-renewal cultures of p57^KIP2−/− cells treated with roscovitine (See FIG. 5I). On day 11 of culture, cells amplified in the presence or absence of roscovitine were plated at 10^5 cells per dish in Epo-containing semi-solid medium. The number of CFUe colonies formed per dish was scored 72 hours following plating.

[8] = system: human bone-marrow CFU-e progenitors; test: CFU-e colony formation in semi-solid medium from human bone marrow cultures; conditions: cells taken on day 11 of culture
Protocol: (17A) Human bone-marrow erythroid progenitors were amplified in cultures as in FIG. 1A. On day 11 of culture, cells were plated in semi-solid methylcellulose medium under differentiation conditions (in the presence of Epo and in the absence of Dex or SCF). CFU-e colonies were scored at 72 hours using diaminobenzidine staining to identify hemoglobinized cells. The absolute number of CFU-e progenitors obtained from the same initial starting number in each culture is shown. All statistically significant differences are noted (two-tailed t test, unequal variance).

Compound: CC(=O)c1c(C)c2cnc(Nc3ccc(N4CCNCC4)cn3)nc2n(C2CCCC2)c1=O [PD0332991]
- amplification of erythroid cell number versus control cultures ([1]; 0.1 μM): either no significant effect or an inhibitory effect
- growth of mouse bone marrow erythroid progenitors (in words) [1]: growth inhibition
- absolute number of CFU-e progenitors by colony formation assay versus control ([2]; 0.1 μM): either no significant effect or an inhibitory effect

Compound: NS(=O)(=O)c1ccc(N/N=C2\C(=O)Nc3ccc(Br)cc32)cc1 [SC-221409]
- amplification of erythroid cell number versus control cultures ([1]; 0.5 μM): significant increase
- growth of mouse bone marrow erythroid progenitors (in words) [1]: improved growth
- absolute number of CFU-e progenitors by colony formation assay versus control ([2]; 0.5 μM): significant increase

Compound: CC[C@H](CO)Nc1nc(NCc2ccccc2)c2ncn(C(C)C)c2n1 [roscovitine]
- Dex-dependent self-renewal and expansion of p57KIP2-deficient CFUe [3]: rescued self-renewal; also recorded: rescue the self-renewal; also recorded: successfully rescued
- amplification of wild-type CFU-e (in words) (wild-type CFU-e; Dex cultures): enhanced the amplification; also recorded: also enhanced
- amplification of wild-type cells relative to wild-type cells without treatment (wild-type CFU-e; average of three independent experiments): 1.92±0.43 fold
- progenitors from wild-type cells relative to absence of drug (wild-type CFU-e; period of 7-9 days): 2 fold
- normal expansion of CFUe cultures derived from wild-type littermates (wild-type CFU-e; roscovitine 0.5 μM): little effect
- peak amplification of cell number [4]: 9 fold
- growth of mouse bone marrow erythroid progenitors (in words) [1]: improved growth
- cell numbers in mouse adult bone marrow cultures (in words) ([1]; roscovitine 1, 5 or 10 μM): significantly higher cell numbers
- increase in absolute CFU-e numbers relative to control cultures ([2]; 1 μM): 62%
- increase in absolute CFU-e numbers relative to control cultures ([2]; 5 μM): 40%
- number of S phase cells (in words) ([5]; BrdU 33 μM pulse for 25 min): fewer S phase cells
- speed of S phase, rate of BrdU incorporation (BrdU MFI in S phase gate) ([5]; BrdU 33 μM pulse for 25 min): substantially slower
- speed of S phase, rate of BrdU incorporation (BrdU MFI in S phase gate) ([5]; BrdU 33 μM pulse for 25 min, listed as Roscovitine): slower S phase
- terminally-differentiating Ter119+ erythroblasts compared with control (in words) ([5]; day 6 of culture): relative absence
- overall viability of cells in culture ([5]; day 6 of culture, data not shown): increased
- cells in the culture expressing Ter119 ([5]; mouse bone marrow cultures, roscovitine-treated): 6%
- cells expressing glycophorin A (in words) [6]: fewer cells are glycophorin A positive
- cells expressing glycophorin A (in words) ([6]; listed as Roscovitine): lower number
- amplification of erythroid cell number in mouse fetal liver cultures (in words) [7]: increased amplification; also recorded: significantly higher cell numbers
- CFUe colony forming potential of treated p57KIP2-/- cells versus untreated cells (p57KIP2-/- CFUe): retained the same potential; also recorded: preserved CFUe colony potential
- increase in absolute number of CFU-e progenitors over control cultures ([8]; 1 μM): 3.9 fold
- increase in absolute number of CFU-e progenitors relative to control ([8]; 5 μM): 4.5 fold
